Assays:
B9-FGFR3WT cell line = assay: B9 myeloma cell proliferation, FGFR3WT; format: cell-based; conditions: 0.1 μM SSR; FGF1 25 ng/ml
Protocol: (§1) Cell proliferation was analysed on exponentially growing cells that were starved for 16 hours in IMDM (Invitrogen, 31980048), 0.2% FBS, 2 mM glutamine containing medium and seeded at 4,000 cells/well in 96-well microplates. After exposure to mitogens and/or SSR for 72 hours, cell proliferation was assessed with the use of the CellTiter 96 AQueous One Solution Cell Proliferation Assay (Promega, Madison, Wis., USA) according to manufacturer's instructions.
(§2) For studying SSR effect on FGFR3, the proliferation of B9-myeloma cells, expressing either FGFR3WT or FGFR3TD (a constitutively activated FGFR3 variant induced by the K650E mutation, even in the absence of any ligand; Truedel et al; blood 2006), was assayed by stimulation with FGF1 (25 ng/ml).

FGFR2^∂23-Y328D = FGFR2^∂23-Y328D (Homo sapiens, UniProt P21802, Y328D); assay: FGF2-induced ERK1/2 phosphorylation in HEK293 cells, FGFR2 Y328D; format: cell-based; design: stably transfected HEK293 cells with full length FGFR2-WT or -Y328D; expressed in transfected cells; host or cells: HEK293; conditions: stable HEK293 FGFR2 Y328D cells; FGF2 0.5 ng/ml 5 min; average±sem, three experiments; read-out: IC50 value, inhibition of FGF2 induced ERK1/2 phosphorylation
Protocol: HEK293 cells were either transiently of stably transfected (using FuGENE 6, Roche) with hFGFR2IIIca or hFGFR2IIIca-Y328D cloned in pcDNA3 (Invitrogen). Stably transfected cells were grown in G418 (400 μg/ml) containing medium. Before stimulation, the cells were starved overnight in DMEM (0% serum), and pre-incubated with […] at the required concentration. The cells were subsequently stimulated with FGF2 (concentration between 0.5-10 ng/ml) for 5 min at 37° C. with or without SSR or SU5402 at 1 μM. After washing with ice-cold phosphate-buffered saline containing phosphatase inhibitors (Roche), cells were lysed in RIPA buffer (Tris 30 mM HCl pH 7.5, 150 mM NaCl, 1 mM EDTA, 1% triton-X, 0.5% w/v deoxycholate, containing phophatase and protease inhibitors as described by the manufacturer (Roche)). Cell lysates were centrifuged at 12,000 g for 10 min, and the supernatants were collected. Proteins were separated on Novex polyacrylamide gels (Invitrogen, Carlsbad, Calif.) and subsequently transferred onto Hybond ECL nitrocellulose membranes (Amersham Pharmacia). Following incubation with 5% non-fat milk powder in PBS, the membranes were incubated overnight at 4° C. with the following antibodies: phospho-ERK1/2 (CST:9101), phospho-FRS2 (CST:3861), phospho-PLCγ (CST:2821) and FGFR2 (F0300, Sigma).

[1] = system: cognate receptor of >100 distinct ligands; assay: SPA selectivity, >100 distinct ligands to their cognate receptor; format: binding; conditions: ligands with related structural homology or entirely different chemical composition
B9-FGFR3TD cell line = assay: B9 myeloma cell proliferation, FGFR3TD (K650E); format: cell-based; conditions: constitutively activated FGFR3 K650E
Protocol: as §1, §2

FGFR4 = biological target: T1, FGFR4 (Homo sapiens, UniProt P22455); assay: AlexaFluor488-FGF2 binding on FGFR4-transfected 300-19 cells (flow cytometry); conditions: SSR 300 nM; FGF2 10 ng/ml; murine pre-B 300-19 cells
T1 construct: expressed in transfected cells; host or cells: murine pre-B 300-19 cells
Protocol: FGF2 was labeled with Alexa Fluor 488 C5-maleimide (Invitrogen, A10254) following purchaser recommendations.
This AF488-FGF2 was used at 10 ng/ml in binding experiments on murine pre-B 300-19 cells transfected with FGFR1 or FGFR4 constructs in pEF6-V5/His Topo plasmids (Invitrogen). SSR (300 nM final) was pre-incubating 20 min with cells in RPMI 1640 (Invitrogen, 32404-014) with 10% FCS (Hyclone, SH30070.03), 2 mM glutamine, MEM non-essential amino-acid 1× (Gibco, 11140-035), MEM sodium pyruvate 1× (Gibco, 11360-039) and […] monothioglycerol (Sigma, M6145) at 4° C. under 150 rpm agitation. Then, FGF2 (10 ng/ml final) is added for 30 min and binding is measured using a FACS Calibur flow cytometer (Beckton Dickinson). Fluorescence median for each condition is also analysed.

[2] = biological target: T2, TNF-R1 extracellular protein (Homo sapiens, UniProt P19438); assay: STD-NMR binding assay, TNF-R1 control; conditions: STD-NMR specificity control
T2 construct: made in house

[3] = system: human umbilical vein endothelial cells (HUVECs); assay: I125-FGF2 binding assay on HUVECs; conditions: intact cells, SSR even at high μM concentrations
[4] = biological target: T3, hFGFR1IIIcα-Hemagluttinin (Homo sapiens, UniProt P11362); assay: FGFR1 phosphorylation in rat fat-pad endothelial cells; format: cell-based
T3 construct: expressed in transfected cells; host or cells: rat fat-pad endothelial cells (RFPEC)
Protocol: Rat fat-pad endothelial cells, stably transfected with hFGFR1IIIcα-Hemagluttinin, were grown to 80-90% confluency and serum starved (0.5% FBS) for 24 h. Stimulation was performed during 5 minutes with FGF2 at 2 ng/ml in combination with SSR or DMSO (as control). Cell lysates were centrifuged at 12,000 g for 10 min, and the supernatants were collected. HA-tagged proteins were immunoprecipitated by incubation of cell lysates overnight at 4° C. in the presence of agarose conjugated anti-HA antibodies. Immune complexes were washed three times with 1 ml of lysis buffer; proteins were eluted via incubation with 50 μl of 2×SDS sample buffer and boiling. Proteins were separated on Novex polyacrylamide gels (Invitrogen, Carlsbad, Calif.) and subsequently transferred onto Hybond ECL nitrocellulose membranes (Amersham Pharmacia). Following incubation with 5% non-fat milk powder in PBS, the membranes were incubated overnight at 4° C. with the following antibodies: pFGFR (CST: 3471) and FGFR1 (CST: 3472).

FGFR2 = biological target: T4, FGFR2 (Homo sapiens, UniProt P21802); assay: FGF ligand binding to FGFR2 in intact cells; conditions: receptor expressed in intact cells
T4 construct: or the expression of the entire intact receptor in its native environment

various FGFRs = assay: additional SPA assays, FGF ligands to various FGFRs; format: binding

T3 sequence (P11362 22-822): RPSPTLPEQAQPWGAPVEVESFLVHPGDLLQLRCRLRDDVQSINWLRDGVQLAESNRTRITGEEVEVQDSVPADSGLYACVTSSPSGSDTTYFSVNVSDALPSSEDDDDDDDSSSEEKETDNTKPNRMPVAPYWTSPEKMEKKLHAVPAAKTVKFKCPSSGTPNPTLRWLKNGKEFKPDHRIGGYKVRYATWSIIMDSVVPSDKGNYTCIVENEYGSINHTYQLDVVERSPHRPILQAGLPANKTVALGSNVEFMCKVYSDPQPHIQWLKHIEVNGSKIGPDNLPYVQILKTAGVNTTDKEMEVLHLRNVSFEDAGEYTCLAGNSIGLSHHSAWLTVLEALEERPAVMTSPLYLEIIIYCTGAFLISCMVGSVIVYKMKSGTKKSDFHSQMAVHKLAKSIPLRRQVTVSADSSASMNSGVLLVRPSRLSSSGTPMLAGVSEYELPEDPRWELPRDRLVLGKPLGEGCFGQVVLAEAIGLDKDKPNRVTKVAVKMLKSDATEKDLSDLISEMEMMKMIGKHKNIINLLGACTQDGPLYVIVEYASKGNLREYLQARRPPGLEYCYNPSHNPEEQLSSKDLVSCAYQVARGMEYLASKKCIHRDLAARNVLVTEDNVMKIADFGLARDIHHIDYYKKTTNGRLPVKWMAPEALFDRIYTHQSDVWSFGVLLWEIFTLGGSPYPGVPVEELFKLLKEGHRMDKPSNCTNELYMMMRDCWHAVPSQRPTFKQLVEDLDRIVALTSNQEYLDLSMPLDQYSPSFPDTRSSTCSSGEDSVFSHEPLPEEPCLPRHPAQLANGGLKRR
FGFR2^∂23-Y328D, sequence (P21802 22-821 Y328D): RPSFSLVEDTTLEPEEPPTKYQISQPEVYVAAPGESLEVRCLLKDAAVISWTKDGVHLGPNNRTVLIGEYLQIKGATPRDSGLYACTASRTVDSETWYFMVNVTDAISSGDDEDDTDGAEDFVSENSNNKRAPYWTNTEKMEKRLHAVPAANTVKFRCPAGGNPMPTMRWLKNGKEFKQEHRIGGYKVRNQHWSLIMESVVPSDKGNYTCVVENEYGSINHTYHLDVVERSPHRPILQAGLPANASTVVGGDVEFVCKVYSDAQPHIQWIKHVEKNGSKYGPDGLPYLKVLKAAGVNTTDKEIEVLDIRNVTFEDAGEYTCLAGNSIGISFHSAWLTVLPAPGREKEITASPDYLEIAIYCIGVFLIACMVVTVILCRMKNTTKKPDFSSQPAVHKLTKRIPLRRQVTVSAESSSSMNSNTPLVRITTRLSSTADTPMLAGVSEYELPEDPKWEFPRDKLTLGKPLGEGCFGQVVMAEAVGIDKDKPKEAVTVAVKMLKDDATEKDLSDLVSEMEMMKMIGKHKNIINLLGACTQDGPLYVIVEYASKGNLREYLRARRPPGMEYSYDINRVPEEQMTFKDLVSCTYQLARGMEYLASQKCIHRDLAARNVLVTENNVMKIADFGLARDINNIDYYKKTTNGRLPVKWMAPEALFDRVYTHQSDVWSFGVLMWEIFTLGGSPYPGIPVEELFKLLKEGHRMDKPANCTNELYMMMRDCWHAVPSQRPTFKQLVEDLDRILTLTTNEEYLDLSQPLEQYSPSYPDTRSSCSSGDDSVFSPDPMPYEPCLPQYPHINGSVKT
T4 sequence (P21802 22-821): as the sequence (P21802 22-821 Y328D) above, with D307Y counted along it
T1 sequence (P22455 22-802): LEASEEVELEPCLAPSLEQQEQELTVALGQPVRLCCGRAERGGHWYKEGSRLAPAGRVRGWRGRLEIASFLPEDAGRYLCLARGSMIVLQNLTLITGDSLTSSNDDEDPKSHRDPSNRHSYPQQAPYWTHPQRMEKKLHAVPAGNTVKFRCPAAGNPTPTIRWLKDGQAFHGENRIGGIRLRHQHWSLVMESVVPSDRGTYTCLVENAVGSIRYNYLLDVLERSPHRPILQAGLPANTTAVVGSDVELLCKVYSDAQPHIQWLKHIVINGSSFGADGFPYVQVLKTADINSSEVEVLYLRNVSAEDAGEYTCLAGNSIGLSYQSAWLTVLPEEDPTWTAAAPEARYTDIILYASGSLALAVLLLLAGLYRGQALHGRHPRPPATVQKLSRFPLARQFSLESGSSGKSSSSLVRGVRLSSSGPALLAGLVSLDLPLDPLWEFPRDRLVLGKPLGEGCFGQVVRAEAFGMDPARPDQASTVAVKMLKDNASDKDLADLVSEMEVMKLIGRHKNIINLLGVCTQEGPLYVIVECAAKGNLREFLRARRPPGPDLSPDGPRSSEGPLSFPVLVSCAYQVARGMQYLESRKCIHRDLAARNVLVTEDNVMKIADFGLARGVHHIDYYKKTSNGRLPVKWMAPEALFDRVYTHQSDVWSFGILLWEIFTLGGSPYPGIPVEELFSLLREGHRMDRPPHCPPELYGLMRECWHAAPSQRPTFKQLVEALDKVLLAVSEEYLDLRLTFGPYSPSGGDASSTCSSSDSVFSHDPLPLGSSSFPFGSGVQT
T2 sequence (P19438 30-211 limits assumed): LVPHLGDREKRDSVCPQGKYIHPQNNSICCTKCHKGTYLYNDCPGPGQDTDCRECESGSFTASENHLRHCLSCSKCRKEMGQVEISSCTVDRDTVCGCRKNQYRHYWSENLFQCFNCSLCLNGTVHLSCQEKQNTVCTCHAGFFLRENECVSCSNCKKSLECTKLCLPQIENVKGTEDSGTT

## COc1c(C)c(C(=O)c2ccc(N)c(C(=O)[O-])c2)n2ccccc12.[Na+] [SSR]
B9-FGFR3WT cell line
  FGF1-induced proliferation of B9-FGFR3WT cells: inhibited
FGFR2^∂23-Y328D
  IC50: 121 ± 30 nM
[1]
  binding of >100 distinct ligands to their cognate receptor: not inhibiting
B9-FGFR3TD cell line
  proliferation of B9-FGFR3TD cells: insensitve
FGFR4
  competition with AlexaFluor488-labelled FGF2 binding to FGFR4: not able to compete this binding
[2]
  binding to TNF-R1 extracellular protein: no binding is observed
[3]
  inhibition of I^125-FGF2 binding to its receptor: unable to inhibit I^125-FGF2 binding
[4]; SSR in the nanomolar concentration range
  FGF2-induced FGFR1 tyrosine phosphorylation: highly reduced
[4]; even at high doses
  residual FGFR1 tyrosine phosphorylation: does not completely eliminate FGFR1 tyrosine phosphorylation
FGFR2
  binding of FGF2 or FGF4 to FGFR2: failed to antagonize
Various FGFRs
  binding of different FGF ligands to various FGFRs: blocking the binding of different FGF ligands to various FGFRs

From patent US9234025B2, “Extracellular allosteric inhibitor binding domain from a tyrosine kinase receptor” (SANOFI, priority 2009, dated 2016)
